# Patent US7799821B2, “Therapeutic compounds” (Allergan, Inc., priority 2004, dated 2010)
# Biological target: T1, hEP2/Gqs5 (Homo sapiens, UniProt P43116)
# T1 construct: expressed in transfected cells; host or cells: HEK-293(EBNA)
# Assay: FLIPR calcium signal, hEP2
# Type: cell-based
# Settings: FLIPR Ca2+ signal, HEK-293(EBNA); read-out: FUNCTIONAL EC50 HEP2
# Method: (§1) HEK-293(EBNA) cells, stably expressing one type or subtype of recombinant human prostaglandin receptors (prostaglandin receptors expressed: hDP/Gqs5; hEP1; hEP2/Gqs5; hEP3A/Gqi5; hEP4/Gqs5; hFP; hIP; hTP), were cultured in 100 mm culture dishes in high-glucose DMEM medium containing 10% fetal bovine serum, 2 mM 1-glutamine, 250 μg/ml geneticin (G418) and 200 μg/ml hygromycin B as selection markers, and 100 units/ml penicillin G, 100 μg/ml streptomycin and 0.25 μg/ml amphotericin B. • (b) Calcium Signal Studies on the FLIPR™
# (§2) Cells were seeded at a density of 5×10^4 cells per well in Biocoat® Poly-D-lysine-coated black-wall, clear-bottom 96-well plates (Becton-Dickinson) and allowed to attach overnight in an incubator at 37° C. Cells were then washed two times with HBSS-HEPES buffer (Hanks Balanced Salt Solution without bicarbonate and phenol red, 20 mM HEPES, pH 7.4) using a Denley Cellwash plate washer (Labsystems). After 45 minutes of dye-loading in the dark, using the calcium-sensitive dye Fluo-4 AM at a final concentration of 2 μM, plates were washed four times with HBSS-HEPES buffer to remove excess dye leaving 100 μl in each well. Plates were re-equilibrated to 37° C. for a few minutes.
# (§3) Cells were excited with an Argon laser at 488 nm, and emission was measured through a 510-570 nm bandwidth emission filter (FLIPR™, Molecular Devices, Sunnyvale, Calif.). Drug solution was added in a 50 μl volume to each well to give the desired final concentration. The peak increase in fluorescence intensity was recorded for each well. On each plate, four wells each served as negative (HBSS-HEPES buffer) and positive controls (standard agonists: BW245C (hDP); PGE2 (hEP1; hEP2/Gqs5; hEP3A/Gqi5; hEP4/Gqs5); PGF2α (hFP); carbacyclin (hIP); U-46619 (hTP), depending on receptor). The peak fluorescence change in each drug-containing well was then expressed relative to the controls.
# (§4) Compounds were tested in a high-throughput (HTS) or concentration-response (CoRe) format. In the HTS format, forty-four compounds per plate were examined in duplicates at a concentration of 10^−5 M. To generate concentration-response curves, four compounds per plate were tested in duplicates in a concentration range between 10^−5 and 10^−11 M. The duplicate values were averaged. In either, HTS or CoRe format each compound was tested on at least 3 separate plates using cells from different passages to give an n≧3.
# T1 sequence (P43116 whole entry): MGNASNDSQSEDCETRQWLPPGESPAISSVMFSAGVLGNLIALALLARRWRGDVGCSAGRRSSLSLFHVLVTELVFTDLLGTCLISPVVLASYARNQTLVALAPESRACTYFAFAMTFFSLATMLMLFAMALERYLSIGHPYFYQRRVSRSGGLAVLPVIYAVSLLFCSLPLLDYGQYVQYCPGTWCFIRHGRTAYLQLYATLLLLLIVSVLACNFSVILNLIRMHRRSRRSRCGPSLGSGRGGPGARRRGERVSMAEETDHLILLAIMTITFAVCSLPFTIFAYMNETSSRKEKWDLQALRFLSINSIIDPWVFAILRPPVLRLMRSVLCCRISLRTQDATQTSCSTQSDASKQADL
row,EC50,SMILES
1,513 nM,O=C(O)CCC/C=C\C[C@@H]1[C@@H](c2ccc(C3(O)CCC3)cc2)[C@H](O)C[C@H]1Cl
2,3440 nM,O=C(O)CCCCCC[C@@H]1[C@@H](c2ccc(CC3CCCCC3)cc2)[C@H](O)C[C@H]1Cl
3,> 10000 nM,COC(=O)CCC/C=C\C[C@H]1C(=O)C[C@@H](O)[C@@H]1c1ccc(C(C)(C)C)cc1
4,743 nM,O=C(O)CCCCCC[C@@H]1[C@@H](c2ccc(C3(O)CCC3)cc2)[C@H](O)C[C@H]1Cl

# Same assay, conditions: read-out: FUNCTIONAL Ca2+ EC50 HEP2
row,EC50,SMILES
1,> 10000 nM,O=C(O)CCCCCC[C@H]1C(=O)CC[C@@H]1c1ccc(C(O)C2CCCCC2)cc1 (stereo partly shown)
2,> 10000 nM,COC(=O)CCCCCC[C@H]1C(=O)CC[C@@H]1c1ccc(C(O)C2CCCCC2)cc1 (stereo partly shown)

# Same assay, conditions: unit inferred; other columns of the table in nM; read-out: EP2 data flipr EC50
row,EC50,SMILES
1,8 nM,CCCCCC(O)c1ccc(N2C(=O)CC[C@@H]2COCc2ccc(C(=O)O)s2)cc1 (stereo partly shown)
2,20 nM,CCCCCCC(O)c1ccc(N2C(=O)CC[C@@H]2COCc2ccc(C(=O)O)s2)cc1 (stereo partly shown) [drawing 169]

# Biological target: T2, HEK-EBNA cells expressing a PG EP2 receptor subtype (Homo sapiens, UniProt P43116)
# T2 construct: expressed in transfected cells; host or cells: HEK-EBNA
# Assay: cAMP assay, EP2
# Type: cell-based
# Settings: unit inferred; read-out: EP2 data cAMP EC50
# Method: A 384-well drug plate was prepared to contain 6 test compounds, PGE2 and cAMP in 16 serial dilutions in triplicate, using a Biomek station. HEK-EBNA cells expressing a target PG receptor subtype (EP2 or EP4) were suspended in a stimulation buffer (HBSS, 0.1% BSA, 0.5 mM IBMX and 5 mM HEPES, pH 7.4) in a density of 10^4 cells/5 μl. The reaction was initiated by mixing 5 μL drug dilutions with 5 μl of HEK-EBNA cells in a well, carried out for 30 min at room temperature, and followed by the addition of 5 μl anti-cAMP acceptor beads in the control buffer with Tween-20 (25 mM NaCl, 0.03% Tween-20, 5 mM HEPES, pH7.4). After 30 min in the dark at room temperature, the mixtures were incubated with 15 μl biotinylated-cAMP/strepavidin donor beads in Lysis/Detection buffer (0.1% BSA, 0.3% Tween-20 and 5 mM HEPES, pH7.4) for 45 min at the room temperature. Fluorescence changes were read using a Fusion-alpha HT microplate reader.
# T2 sequence (P43116 whole entry): as above
row,EC50,SMILES
1,0.0015 µM,CCCCCCC(O)c1ccc(N2C(=O)CC[C@@H]2COCc2ccc(C(=O)O)s2)cc1 (stereo partly shown) [drawing 169]

# Biological target: T3, hTP (Homo sapiens, UniProt P21731)
# T3 construct: expressed in transfected cells; host or cells: HEK-293(EBNA)
# T3 sequence (P21731 1-343): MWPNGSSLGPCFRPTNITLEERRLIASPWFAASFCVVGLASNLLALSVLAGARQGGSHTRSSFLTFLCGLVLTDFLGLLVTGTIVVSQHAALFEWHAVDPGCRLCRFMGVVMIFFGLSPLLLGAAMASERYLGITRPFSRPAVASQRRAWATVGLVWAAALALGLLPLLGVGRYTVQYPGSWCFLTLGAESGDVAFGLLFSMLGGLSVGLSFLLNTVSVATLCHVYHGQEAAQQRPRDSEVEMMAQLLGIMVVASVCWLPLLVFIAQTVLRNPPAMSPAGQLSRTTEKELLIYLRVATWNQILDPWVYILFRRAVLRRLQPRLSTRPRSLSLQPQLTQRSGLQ
# Assay: FLIPR calcium signal, hTP
# Type: cell-based
# Settings: FLIPR Ca2+ signal, HEK-293(EBNA); read-out: FUNCTIONAL EC50 HTP
# Method: as §1, §2, §3, §4
row,EC50,SMILES
1,> 10 µM,O=C(O)CCC/C=C\C[C@@H]1[C@@H](c2ccc(C3(O)CCC3)cc2)[C@H](O)C[C@H]1Cl
2,> 10 µM,COC(=O)CCC/C=C\C[C@H]1C(=O)C[C@@H](O)[C@@H]1c1ccc(C(C)(C)C)cc1
3,> 10 µM,O=C(O)CCCCCC[C@@H]1[C@@H](c2ccc(C3(O)CCC3)cc2)[C@H](O)C[C@H]1Cl

# Same assay, conditions: read-out: FUNCTIONAL Ca2+ EC50 HTP
row,EC50,SMILES
1,> 10 µM,O=C(O)CCCCCC[C@H]1C(=O)CC[C@@H]1c1ccc(C(O)C2CCCCC2)cc1 (stereo partly shown)
2,> 10 µM,COC(=O)CCCCCC[C@H]1C(=O)CC[C@@H]1c1ccc(C(O)C2CCCCC2)cc1 (stereo partly shown)

# Biological target: T4, hEP4/Gqs5 (Homo sapiens, UniProt P35408)
# T4 construct: expressed in transfected cells; host or cells: HEK-293(EBNA)
# Assay: FLIPR calcium signal, hEP4
# Type: cell-based
# Settings: unit inferred; read-out: EP4 data flipr EC50
# Method: as §1, §2, §3, §4
# T4 sequence (P35408 whole entry): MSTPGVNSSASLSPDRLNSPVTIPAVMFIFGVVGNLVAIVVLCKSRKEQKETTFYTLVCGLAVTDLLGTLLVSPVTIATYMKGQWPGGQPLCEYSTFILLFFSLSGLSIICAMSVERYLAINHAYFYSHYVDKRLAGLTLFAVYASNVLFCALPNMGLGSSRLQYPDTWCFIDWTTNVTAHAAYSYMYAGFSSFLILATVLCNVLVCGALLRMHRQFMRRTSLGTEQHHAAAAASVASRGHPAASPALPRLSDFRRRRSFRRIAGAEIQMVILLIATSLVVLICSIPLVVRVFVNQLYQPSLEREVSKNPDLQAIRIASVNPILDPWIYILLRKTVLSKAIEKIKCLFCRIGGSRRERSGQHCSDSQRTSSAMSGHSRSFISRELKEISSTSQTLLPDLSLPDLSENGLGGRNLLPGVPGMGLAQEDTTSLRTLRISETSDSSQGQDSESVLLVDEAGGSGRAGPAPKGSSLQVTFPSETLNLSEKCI
row,EC50,SMILES
1,> 10 µM,CCCCCC(O)c1ccc(N2C(=O)CC[C@@H]2COCc2ccc(C(=O)O)s2)cc1 (stereo partly shown)

# Biological target: T5, EP4 receptors (Homo sapiens, UniProt P35408)
# T5 construct: expressed in transfected cells; host or cells: HEK-293
# Assay: Radioligand binding ([3H]PGE2), EP4
# Settings: unit inferred; read-out: EP4 data KI
# Method: (§5) HEK-293 cells stably expressing the human or feline FP receptor, or EP1, EP2, or EP4 receptors were washed with TME buffer, scraped from the bottom of the flasks, and homogenized for 30 sec using a Brinkman PT 10/35 polytron. TME buffer was added to achieve a final 40 ml volume in the centrifuge tubes (the composition of TME is 100 mM TRIS base, 20 mM MgCl2, […]; 10N HCl is added to achieve a pH of 7.4).
# (§6) The cell homogenate was centrifuged at 19000 r.p.m. for 20 min at 4° C. using a Beckman Ti-60 rotor. The resultant pellet was resuspended in TME buffer to give a final 1 mg/ml protein concentration, as determined by Biorad assay. Radioligand binding competition assays vs. [^3H-]17 —phenyl PGF2α (5 nM) were performed in a 100 μl volume for 60 min. Binding reactions were started by adding plasma membrane fraction. The reaction was terminated by the addition of 4 ml ice-cold TRIS-HCl buffer and rapid filtration through glass fiber GF/B filters using a Brandel cell harvester. The filters were washed 3 times with ice-cold buffer and oven dried for one hour.
# (§7) [^3H-] PGE2 (specific activity 180 Ci mmol) was used as the radioligand for EP receptors. [^3H] 17-phenyl PGF2α was employed for FP receptor binding studies. Binding studies employing EP1, EP2, EP4 and FP receptors were performed in duplicate in at least three separate experiments. A 200 μl assay volume was used. Incubations were for 60 min at 25° C. and were terminated by the addition of 4 ml of ice-cold 50 mM TRIS-HCl, followed by rapid filtration through Whatman GF/B filters and three additional 4 ml washes in a cell harvester (Brandel). Competition studies were performed using a final concentration of 5 nM [^3H]—PGE2, or 5 nM [^3H] 17-phenyl PGF2α and non-specific binding determined with 10^−5M of unlabeled PGE2, or 17-phenyl PGF2α, according to receptor subtype studied.
# T5 sequence (P35408 whole entry): as above
row,Ki,SMILES
1,> 10 µM,CCCCCC(O)c1ccc(N2C(=O)CC[C@@H]2COCc2ccc(C(=O)O)s2)cc1 (stereo partly shown)
2,> 10 µM,CCCCCCC(O)c1ccc(N2C(=O)CC[C@@H]2COCc2ccc(C(=O)O)s2)cc1 (stereo partly shown) [drawing 169]

# Biological target: T6, human EP2 receptors (Homo sapiens, UniProt P43116)
# T6 construct: expressed in transfected cells; host or cells: HEK 293
# Assay: Competition radioligand binding ([3H]PGE2), EP2
# Settings: unit inferred; read-out: EP2 data Ki
# Method: Competition binding experiments were performed in a medium containing Hank's balanced salt solution, […], membranes (˜60 μg protein) or 2×10^5 cells from HEK 293 cells stably expressing human EP2 receptors, [^3H]PGE2 (10 nM) and various concentrations of test compounds in a total volume of 300 μl. Reaction mixtures were incubated at 23° C. for 60 min, and were filtered over Whatman GF/B filters under vacuum. Filters were washed three times with 5 ml ice-cold buffer containing 50 mM Tris/HCl (pH 7.3). Non-specific binding was estimated in the presence of excess unlabeled PGE2 (10 μM). Binding data fitted to the binding model for a single class of binding sites, using nonlinear regression analysis. IC50 values thus obtained were converted to Ki using the equation of Ki=(IC50/(1+[L]/KD) where [L] represents PGE2 concentration (10 nM) and KD the dissociation constant for [^3H]PGE2 at human EP2 receptors (40 nM).
# as §5, §6, §7
# T6 sequence (P43116 whole entry): as the sequence (P43116 whole entry) above
row,Ki,SMILES
1,0.115 µM,CCCCCC(O)c1ccc(N2C(=O)CC[C@@H]2COCc2ccc(C(=O)O)s2)cc1 (stereo partly shown)
2,0.19 µM,CCCCCCC(O)c1ccc(N2C(=O)CC[C@@H]2COCc2ccc(C(=O)O)s2)cc1 (stereo partly shown) [drawing 169]

# Biological target: T7, hDP/Gqs5 (Homo sapiens, UniProt Q13258)
# T7 construct: expressed in transfected cells; host or cells: HEK-293(EBNA)
# T7 sequence (Q13258 1-359): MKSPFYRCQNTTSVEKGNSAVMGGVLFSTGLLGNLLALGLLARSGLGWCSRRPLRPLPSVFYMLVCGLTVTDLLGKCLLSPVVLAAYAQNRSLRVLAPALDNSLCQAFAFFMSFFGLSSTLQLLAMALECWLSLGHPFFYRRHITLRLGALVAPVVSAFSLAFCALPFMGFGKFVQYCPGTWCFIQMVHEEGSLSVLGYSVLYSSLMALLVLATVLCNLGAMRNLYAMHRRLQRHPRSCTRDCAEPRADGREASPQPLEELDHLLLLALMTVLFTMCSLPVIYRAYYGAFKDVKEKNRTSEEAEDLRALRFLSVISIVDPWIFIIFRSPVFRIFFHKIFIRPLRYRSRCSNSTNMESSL
# Assay: FLIPR calcium signal, hDP
# Type: cell-based
# Settings: FLIPR Ca2+ signal, HEK-293(EBNA); read-out: FUNCTIONAL EC50 HDP
# Method: as §1, §2, §3, §4
row,EC50,SMILES
1,> 10 µM,O=C(O)CCCCCC[C@@H]1[C@@H](c2ccc(CC3CCCCC3)cc2)[C@H](O)C[C@H]1Cl

# Same assay, conditions: read-out: Other Receptors EC50 hDP
row,EC50,SMILES
1,3.23 µM,CCCCCC(O)c1ccc(N2C(=O)CC[C@@H]2COCc2ccc(C(=O)O)s2)cc1 (stereo partly shown)
2,5.76 µM,CCCCCCC(O)c1ccc(N2C(=O)CC[C@@H]2COCc2ccc(C(=O)O)s2)cc1 (stereo partly shown) [drawing 169]
